Measurements from patent publication US20090110673A1, “METHODS OF REDUCING CELL DEATH FOLLOWING HYPOXIA / REOXYGENATION” (THE UNIVERSITY OF CHICAGO, priority 2006, published 2009).
Values joined by “and” are separate entries in the source; they are usually repeats but may differ in a detail not shown here. Equal values may be shown once. “Also recorded” adds a separate entry of the source.

What was measured:
Format in all cases: cell-based
[1] = tested on: Ventricular embryonic chick cardiomyocytes; assay: Cell death (propidium iodide viability assay) after simulated ischemia/reperfusion; conditions: for cell death: control 50.2±3.0%, n=3
Procedure: Ventricular embryonic chick cardiomyocytes were prepared according to published procedure. […] Coverslips were checked for non-muscle cell contamination.
(§1) Coverslips with contracting cells were placed in a 1.2 mL Sykes-Moore perfusion chamber (Bellco Glass Inc., Vineland, N.J.). The chamber and inflow tubing were maintained at 37° C. Perfusate was supplied to the chamber (0.25 ml/min) via stainless steel tubing to minimize diffusive entry of ambient O2.
Cell viability was assessed with the fluorochrome propidium iodide (PI) (5 μM, Molecular Probes, Eugene, Oreg.). PI is excluded from viable cells, but enters cells and binds to chromatin after loss of cell membrane integrity. The cells then become highly fluorescent (excitation wavelength of 540 nm and a 590 nm band pass emission filter). PI was used to quantify cell death throughout the entire time of each experiment. […] All cells in the field studied were stained with PI at the end of the experiment by permeabilizing the cells with digitonin (300 μM). Percent cell death was then calculated as the PI fluorescence at any given time point relative to the maximal fluorescence value seen after digitonin exposure.
(§2) For each experiment a field of about 500 cells was observed. Treatment and control groups were matched in sets containing cells isolated and cultured on the same day so as to eliminate variability due to cell batch. Additional 25 mm coverslips were used for replicate experiments (“n”). Results are reported as means plus or minus S.E.M. and two-tailed unpaired t-tests comparing similar time points throughout ischemia and reperfusion were used as tests of significance, with p<0.05 considered to be significant.

[2] = tested on: reactive oxygen species (ROS) in embryonic chick cardiomyocytes; assay: Intracellular ROS (DCF fluorescence) at reperfusion after simulated ischemia
Procedure: (§3) Ventricular embryonic chick cardiomyocytes were prepared according to published procedure. (Vanden Hoek T L, Becker L B, Shao Z, et al. Reactive oxygen species released from mitochondria during brief hypoxia induce preconditioning in cardiomyocytes, J. Biol. Chem. […]; 273:18092-18098, which is incorporated herein by reference). 10-day old chicken embryo hearts were removed, ventricular tissue minced into 0.5 mm fragments, enzymatically dispersed with 0.025% trypsin (Life Technologies, New York, N.Y.), centrifuged, 0.7×10^6 cells were pipetted onto 25 mm coverslips, and incubated with 5% CO2. Coverslips were checked for non-muscle cell contamination. Experiments were performed with 3-5 day cardiac cell cultures, by which time a synchronously contracting layer of cells could be visualized and viability exceeded 95%.
as §1
(§4) Normoxic perfusate used for baseline conditions and for reperfusion subsequent to ischemia contained oxygenated balanced salt solution (BSS) with a PO2 OF 149 torr, PCO2 of 40 torr, pH of 7.4, and [K]^+ of 4.0 mEq/L, and glucose (5.6 mM). To simulate ischemia, the perfusate contained BSS with 2-deoxyglucose (2-DOG) (20 mM) rather than glucose and [K]^+ of 8.0 mEq/L. The ischemic perfusate was equilibrated with 80% N2 and 20% CO2 prior to use to produce a PO2 of ˜5 torr, a PCO2 of 144 torr and a final pH of 6.8.
Intracellular oxidant stress due to ROS was monitored real time with the intracellular probe 2′,7′-dichlorofluorescin diacetate (DCFH-DA, 5 μM, Molecular Probes, Eugene, Oreg.) as described in published literature (Vanden Hoek, F L, et al., Reactive oxygen species released from mitochondria during brief hypoxia induce preconditioning in cardiomyocytes, J. Biol. Chem. […]; 273:18092-18098, which is incorporated by reference herein; Vanden Hoek, T L, et al, Preconditioning in cardiomyocytes protects by attenuating oxidant stress at reperfusion, Circ Res 2000; 86:534-540, which is incorporated by reference herein; Vanden Hoek, T L, Reperfusion, not simulated ischemia initiates intrinsic apoptosis injury in chick cardiomyocytes Am J. Physiol Heart Physiol 2003; 284:H141-150, which is incorporated by reference herein). DCFH-DA is cleaved by cellular esterases upon entry into the cells, trapping the nonfluorescent 2′,7′-dichlorofluorescin (DCFH) inside. ROS, particularly hydrogen peroxide (H2O2) and hydroxyl radical generate the fluorescent product dichlorofluorescein (DCF) by causing the oxidation of DCFH. Increases in DCF fluorescence result from DCFH oxidation to DCF. DCF fluorescence was measured at an excitation wavelength of 480 nm, and a 520 nm band pass emission filter. Attention was focused on the maximal DCF fluorescence intensity value during the first minutes of reperfusion for comparison. All measurements were expressed in arbitrary units (a.u.) of fluorescence.
as §2

[3] = tested on: nitric oxide (NO) generation in embryonic chick cardiomyocytes; assay: NO generation (DAF-2 fluorescence) during ischemia/reperfusion; conditions: L-NAME 200 μM during I/R, n=8
Procedure: as §3, with “al:” for “al.”, “0.25%” for “0.025%”, “95%. […]” for “95%.”
Endogenous NO generation has been implicated to have both protective and detrimental roles in various in vitro and in vivo models of I/R injury. To test whether endogenous NO was affected by hypocarbic or hypercarbic reperfusion, we continuously monitored the entire course of I/R using the NO indicator DAF-2 DA of cells treated as described in Example 2.
Cells were treated as described in Example 11, and the NO profile and cell viability was assessed in hypercarbic reperfusion compared with hypercarbic reperfusion with 200 μM L-NAME incubated during I/R as described above.

[4] = tested on: reactive oxygen species (ROS) in embryonic chick cardiomyocytes; assay: ROS (DCF fluorescence) during hypocarbic/normocarbic/hypercarbic reperfusion; conditions: apocynin 300 μM during reperfusion
Procedure: as §3, with “al:” for “al.”, “0.25%” for “0.025%”
To simulate ischemia, the perfusate contained BSS with 2-deoxyglucose (2-DOG) (20 mM) rather than glucose, 18 mM NaCO3 and [K]^+ of 8.0 mEq/L, and was equilibrated with 80% N2 and 20% CO2 to produce a final PO2 of 3-5 torr, PCO2 of 144 torr, and pH 6.8. In addition, 20 mM of glycolytic inhibition 2-deoxyglucose was added to better model adenosine triphosphate depletion.
For perfusion, three perfusate solutions were used: normocarbic reperfusion perfusate, hypocarbic reperfusion perfusate and hypercarbic reperfusion perfusate. […]

[5] = tested on: Ventricular embryonic chick cardiomyocytes; assay: Return of synchronous cell contraction after simulated ischemia/reperfusion; conditions: no return in control cells
Procedure: as §3, §4
Contractions were assessed by monitoring synchronous movement within the same field of cells as previously reported. A return of contraction following simulated ischemia/reperfusion was indicated when contractions could be seen throughout the field of cells following the three hour period of reperfusion.

[6] = 20 μM NADH isomer at reperfusion

CCN(CC)C(=S)S [DDC, diethyldithiocarbamic acid]
I/R induced cell death ([1]; DDC 1 mM during reperfusion, control 49.7±6.7%, n=5): 15.7±4.7% | maximal DCF fluorescence intensity ([2]; DDC 1 mM during simulated ischemia and first 15-30 min of reperfusion, control 2.8±0.2 a.u., n=5): 1.6±0.1 a.u.

COC(=O)[C@@H](N)CCCNC(=N)N[N+](=O)[O-] [L-NAME, N^G-nitro-L-arginine methyl ester]
NO generation (DAF-2 fluorescence) during hypercarbic reperfusion [3]: blocked maintenance of the sustained NO levels; also recorded: reduction of the sustained increase of NO generation

COc1cc(C(C)=O)ccc1O [apocynin]
ROS burst (DCF fluorescence) in hypocarbic reperfusion ([4]; hypocarbic): did not attenuate the reperfusion ROS burst; also recorded: increased the ROS burst | ROS burst (DCF fluorescence) in normocarbic reperfusion ([4]; normocarbic): did not attenuate the reperfusion ROS burst; also recorded: increased the ROS burst

C=C(C)[C@H]1Cc2c(ccc3c2O[C@@H]2COc4cc(OC)c(OC)cc4[C@@H]2C3=O)O1 [rotenone]
protection against I/R injury (cell protection) ([1]; all tested doses of rotenone, including nanomolar doses for first 15 minutes of reperfusion): no tested dose of rotenone conferred cell protection | cell death ([1]; rotenone 100 nM, first 15 minutes of reperfusion): 61.3±1.6% | cell death ([1]; rotenone 1 μM, first 15 minutes of reperfusion): 77.4±6.6% and 77.1±6.6% | cell death ([1]; rotenone 10 μM, first 15 minutes of reperfusion): 66.1±3.4% and 66.2±3.4% | maximal peak DCF fluorescence intensity (reperfusion ROS) ([2]; rotenone 5 μM (representative of all doses), control 2.4±0.3 a.u., n=5): 0.7±0.1 a.u.

C/C=C(C)/C=C/C=C/[C@H](OC)[C@@H](C)[C@@H](OC)[C@@H](C)CCc1oc2c(O)c(OC)cc(OC)c2c(=O)c1C [stigmatellin]
cell death ([1]; stigmatellin 20 nM, first 15 minutes of reperfusion): 20.3±5.0% | cell death ([1]; stigmatellin 100 μM, 3 hours of reperfusion): 80.1±6.0% | cell death ([1]; stigmatellin 100 μM, first 15 minutes of reperfusion): 52.3±3.0% | I/R cell death ([1]; stigmatellin 2-20 nM, first 15 min of reperfusion, control 53.8±3.5%, n=5): 10.8±2.9% | reperfusion ROS ([2]; stigmatellin 100 μM, first 15 min of reperfusion): ROS was abrogated | maximal peak DCF fluorescence intensity ([2]; stigmatellin 2-20 nM, first 15 min of reperfusion, control 2.4±0.3 a.u., n=5): 0.46±0.02 a.u. | reperfusion ROS ([2]; stigmatellin given during the whole 3 hour course of reperfusion): ROS was attenuated | return of contractions (groups with return/total) ([5]; stigmatellin 2-20 nM, first 15 minutes of reperfusion): 5/5

NC(=O)C1=CN([C@H]2O[C@H](COP(=O)(O)OP(=O)(O)OC[C@H]3O[C@@H](n4cnc5c(N)ncnc54)[C@H](O)[C@@H]3O)[C@@H](O)[C@H]2O)C=CC1 [α-NADH]
I/R cell death ([1]; exogenous α-NADH 20 μM, control 47.1±3.0%, n=5): 13.8±1.3% | effect on β-NADH induced increase in ROS ([2]; α-NADH 20 μM co-treated with β-NADH 20 μM): blocked this increase in ROS; also recorded: reversal of the increase was observed | return of contractions (groups with return/total) [5, 6]: 5/5

NC(=O)C1=CN([C@@H]2O[C@H](COP(=O)(O)OP(=O)(O)OC[C@H]3O[C@@H](n4cnc5c(N)ncnc54)[C@H](O)[C@@H]3O)[C@@H](O)[C@H]2O)C=CC1 [β-NADH]
I/R cell death versus control ([1]; exogenous β-NADH 20 μM, first 10 minutes of reperfusion): showed no benefit | percent increase in ROS generation during reperfusion over ischemia ([2]; exogenous β-NADH 20 μM, first 10 minutes of reperfusion, control 86.2±19.6%, n=8): 511±123% | return of contractions (groups with return/total) [5, 6]: absence of contractile return
